Key:
[1] = system: calliclones (regenerated shoots) of Mentha arvensis cv. Himalaya; assay: Large scale stepwise screening of calliclones on menthol screening medium; format: cell-based
Protocol: Large scale screening of clones was carried out in various batches by raising the calliclones as above. A total of 2850 shoots were transferred to the screening medium containing 50 μg ml^−1 menthol and incubated for 1 week. The surviving shoots from this medium were stepwise transferred to media containing higher concentrations of menthol ([…]). Finally the tolerant clones surviving at 70 μg ml^−1 menthol concentration were transferred individually to MS basal medium containing vitamins for rooting. The looted plantlets were subsequently hardened and transferred to pots in the glass house to raise sufficient planting material (sucker) for field experiments.
After 7 days of culture 1263 twigs survived at 50 μg ml^−1 concentration of menthol. These surviving shoots were subsequently transferred to the medium containing 60 μg ml^−1 menthol At this concentration 942 twig turned brown and died within 7 days. Finally, the 321 twigs which survived were inoculated into the screening medium containing 70 μg ml^−1 menthol. In His tertiary level screening, only 30 shoots survived (Table 5). These clones were inoculated into the rooting medium and after rooting transferred to pots in the glasshouse. The acclimatized selected plantlets from the glasshouse were transferred to the field for sucker production in the month of September 1997. In the month of January 1998, the suckers developed from each plant were field planted with 5 replicates using randomized block design. The plants grown with standard agronomic practices were harvested twice, first after 110 days of planting and subsequently 70 days after the first harvest. Ultimately, these 30 menthol tolerant clones were multiplied and grown in the field in replicated plots of 5 m×5 m sizes. The twigs of 30 clones from the replicated trials were rechecked for tolerant phenotypes at a concentration of 70 μg ml^−1 menthol wherein, these survived even after 7 days. These were also tested for survival at one step higher concentration of menthol (80 μg ml^−1). At this concentration of menthol only 5 clones (GRB 3, 14, 24, 27, 30) survived.
2. Large scale screening of the heterogeneous population of molecular variants were carried out by inoculating the regenerated independent clones into the screening medium i.e., MS basal agar containing 50 μg ml^−1 menthol followed by incubation for 1 week.
3. The surviving shoots from this medium were step-wise transferred to media containing higher concentrations of menthol (60 and 70 μg ml^−1). Finally the tolerant clones surviving at 70 μg ml^−1 menthol concentration (which cause 99% killing) are transferred individually to MS basal medium containing vitamins for rooting.

[2] = system: regenerated shoots of Mentha arvensis variety Gomti; assay: Survival of in vitro raised shoots on menthol containing MS basal medium; format: cell-based
Excerpt: The plant varieties analysed were Himalaya, Shivalik, Gomti, MAS-1, Kosi, Kalka of Mentha arvensis L. (2n=96). The suckers of these plant varieties were obtained from CIMAP's national gene bank for medicinal and aromatic plants for planting. The explant materials were collected from the field grown plants and surface sterilized by washing sequentially with 2% detergent, distilled water containing a few drops of Savlon (Johnson and Johnson, India), 0.1% acidified mercuric chloride and autoclaved distilled water before inoculation. About 1 cm long internodal pieces were inoculated in the MS medium (Murasighe and Skoog, 1962) containing vitamins, 100 mg l^−1 myo-inositol 3% wv^−1 sucrose, 1.5% wv^−1 agar (Difco), 0.5 .μg ml^−1 of an auxin, (NAA, 1-napthalene acetic acid) and 5 μg ml^−1 of a cytokinin (BAP, benzyl aminopurine) (Shasany et al, 1998). The cultures were grown at 25±2° C. and 400 to 600 lux light intensity with 16 h photoperiod. The regenerated shoots were separated 12 weeks after the explant inoculation for rooting and/or testing menthol tolerance.
The regenerated shoots (3-4 cm long, containing the apical bud and 2-3 nodes) separated after 12 weeks, were inoculated into MS basal medium with or without menthol (0 to 100 μg ml^−1). Concentration of menthol in each treatment was stepped up by 10 μg in a sequential manner. On each kind of these media, 5 independently regenerated shoots were inoculated per flask; 4 flasks were inoculated per replication and each treatment was replicated 5 times, making the number of flasks to 20 and number of explants to 100 for each concentration of menthol. The experiment was conducted in the completely randomized design (CRD) fashion. Cultures were incubated and maintained at 25±2° C. and 400-600 lux light intensity with 16-hour photoperiod. The wilting response and lethality in explants was recorded every 24 hours over a period of one week.

CC1CCC(C(C)C)C(O)C1 (stereo not drawn) [menthol]
twigs survived ([1]; menthol 50 μg ml^−1, after 7 days of culture, of a total of 2850 shoots): 1263 | twigs which survived ([1]; menthol 60 μg ml^−1, of the 1263 survivors of 50 μg ml^−1): 321 | twigs turned brown and died ([1]; menthol 60 μg ml^−1, within 7 days, of the 1263 survivors of 50 μg ml^−1): 942 | killing ([1]; menthol 70 μg ml^−1): 99% | shoots survived ([1]; menthol 70 μg ml^−1, tertiary level screening of 321 twigs): 30 | clones survived ([1]; menthol 80 μg ml^−1, twigs of the 30 selected tolerant clones from field trials): 5 | lethality ([2]; 100-ppm menthol, twenty-four hours after incubation): 99% | Survival after 7 days Number ([2]; menthol 10 μg ml^−1): 20.0 ± 0.00 | Survival after 24 hours Number ([2]; menthol 10 μg ml^−1, 20 shoots tested per replication): 20.0 ± 0.00 | Survival after 7 days Number ([2]; menthol 20 μg ml^−1): 20.0 ± 0.00 | Survival after 24 hours Number ([2]; menthol 20 μg ml^−1, 20 shoots tested per replication): 20.0 ± 0.00 | Survival after 7 days Number ([2]; menthol 30 μg ml^−1): 20.0 ± 0.00 | Survival after 24 hours Number ([2]; menthol 30 μg ml^−1, 20 shoots tested per replication): 20.0 ± 0.00 | Survival after 7 days Number ([2]; menthol 40 μg ml^−1): 16.8 ± 0.48 | Survival after 24 hours Number ([2]; menthol 40 μg ml^−1, 20 shoots tested per replication): 20.0 ± 0.00 | Survival after 7 days Number ([2]; menthol 50 μg ml^−1): 7.0 ± 0.41 | Survival after 24 hours Number ([2]; menthol 50 μg ml^−1, 20 shoots tested per replication): 16.0 ± 0.90 | Survival after 7 days Number ([2]; menthol 60 μg ml^−1): 4.0 ± 0.57 | Survival after 24 hours Number ([2]; menthol 60 μg ml^−1, 20 shoots tested per replication): 12.0 ± 0.71 | Survival after 7 days Number ([2]; menthol 70 μg ml^−1): 0.4 ± 0.32 | Survival after 24 hours Number ([2]; menthol 70 μg ml^−1, 20 shoots tested per replication): 6.0 ± 0.32 | Survival after 7 days Number ([2]; menthol 80 μg ml^−1): 0.0 ± 0.00 | Survival after 24 hours Number ([2]; menthol 80 μg ml^−1, 20 shoots tested per replication): 1.6 ± 0.31 | Survival after 7 days Number ([2]; menthol 90 μg ml^−1): 0.0 ± 0.00 | Survival after 24 hours Number ([2]; menthol 90 μg ml^−1, 20 shoots tested per replication): 1.0 ± 0.41 | Survival after 7 days Number ([2]; menthol 100 μg ml^−1): 0.0 ± 0.00 | Survival after 24 hours Number ([2]; menthol 100 μg ml^−1, 20 shoots tested per replication): 0.2 ± 0.26
